This note sets out measurements from ChEMBL document CHEMBL3046691, “Herbicidal pyridyl derivatives of aminomethylene-bisphosphonic acid inhibit plant glutamine synthetase” (J Agric Food Chem, 2004).

Activity calls are given as the source filed them. The rule behind the calls is not given here.

Experiment [1] has as its system Oryza sativa. Kind of experiment: Effect on amino acid pool in Oryza sativa cv. Gigante vercellese (rice) cells assessed as aspartic acid content per gram freshweight of culture at 0.5 mM after 48 hr (reference value: 1.10 +/- 0.26 umol). In kind it is functional.
The target in experiment [2] is T1, Glutamine synthetase (Oryza sativa) (UniProt Q01HZ7).
T1 sequence (whole entry): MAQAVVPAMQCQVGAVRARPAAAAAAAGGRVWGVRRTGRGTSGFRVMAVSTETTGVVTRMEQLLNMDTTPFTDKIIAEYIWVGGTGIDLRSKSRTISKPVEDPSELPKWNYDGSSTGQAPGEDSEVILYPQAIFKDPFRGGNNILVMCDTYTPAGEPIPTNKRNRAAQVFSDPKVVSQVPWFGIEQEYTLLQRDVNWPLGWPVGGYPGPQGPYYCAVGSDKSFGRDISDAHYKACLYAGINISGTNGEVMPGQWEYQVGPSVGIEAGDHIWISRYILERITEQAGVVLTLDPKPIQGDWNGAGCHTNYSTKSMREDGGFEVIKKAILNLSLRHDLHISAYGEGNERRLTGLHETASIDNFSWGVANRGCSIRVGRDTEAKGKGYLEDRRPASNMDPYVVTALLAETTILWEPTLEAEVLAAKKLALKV
The experiment in a line: Inhibition of Oryza sativa cv. Gigante vercellese (rice) glutamine synthetase assessed as inhibition of glutamine synthesis from glutamic acid at 1 mM after 15 min by biosynthetic assay. Conditions: values are per cent of control.

In experiment [3] the target is T1, Glutamine synthetase (Oryza sativa). Kind of experiment: Inhibition of Oryza sativa cv. Gigante vercellese (rice) glutamine synthetase at 1 mM after 30 min by hemibiosynthetic assay. Conditions: values are per cent of control.
Experiment [4] shares this target. Kind of experiment: Inhibition of Oryza sativa cv. Gigante vercellese (rice) glutamine synthetase at 1 mM by transferase assay. To be noted: values are per cent of control.
The test system of experiment [5] is Oryza sativa. The experiment in a line: Effect on amino acid pool in Oryza sativa cv. Gigante vercellese (rice) cells assessed as total amino acid content per gram fresh weight of culture at 0.5 mM after 48 hr (reference value: 24.65 +/- 0.97 umol). Type of experiment: functional.
The test system of experiment [6] is Oryza sativa. The experiment in a line: Effect on amino acid pool in Oryza sativa cv. Gigante vercellese (rice) cells assessed as glutamine content per gram fresh weight of culture at 0.5 mM after 48 hr (reference value: 4.24 +/- 0.35 umol). In kind it is functional.
Experiment [7] deals with Oryza sativa. Kind of experiment: Effect on amino acid pool in Oryza sativa cv. Gigante vercellese (rice) cells assessed as serine content per gram freshweight of culture at 0.5 mM after 48 hr (reference value: 0.60 +/- 0.09 umol). In kind it is functional.
In experiment [8] the test system is Oryza sativa. Kind of experiment: Effect on amino acid pool in Oryza sativa cv. Gigante vercellese (rice) cells assessed as asparagine content per gram freshweight of culture at 0.5 mM after 48 hr (reference value: 3.18 +/- 0.25 umol). Type of experiment: functional.
Experiment [9] has as its system Oryza sativa. Kind of experiment: Effect on amino acid pool in Oryza sativa cv. Gigante vercellese (rice) cells assessed as glutamic acid content per gram freshweight of culture at 0.5 mM after 48 hr (reference value: 0.75 +/- 0.07 umol). In kind it is functional.
For experiment [10], the target named is T2, Glutamine synthetase (Oryza sativa, UniProt Q01HZ7).
T2 sequence (Q01HZ7 whole entry): T1 sequence (whole entry)
Kind of experiment: Inhibition of Oryza sativa cv. Gigante vercellese (rice) glutamine synthetase assessed as inhibition of glutamine synthesis from glutamic acid after 15 min by biosynthetic assay. Conditions: read-out: I50.

Experiment [11] addresses T2, Glutamine synthetase. Kind of experiment: (§1) Inhibition of Oryza sativa cv. Gigante vercellese (rice) glutamine synthetase after 30 min by hemibiosynthetic assay. To be noted: read-out: I50.
For experiment [12], the target named is T2, Glutamine synthetase. Kind of experiment: (§2) Inhibition of Oryza sativa cv. Gigante vercellese (rice) glutamine synthetase by transferase assay. To be noted: read-out: I50.
Experiment [13] concerns the target T1, Glutamine synthetase (Oryza sativa). The experiment in a line: Reversible inhibition of Oryza sativa cv. Gigante vercellese (rice) glutamine synthetase assessed as inhibition of glutamine synthesis from glutamic acid at 20 uM after 50 min by biosynthetic assay.
Experiment [14] has the same target. Kind of experiment: Reversible inhibition of Oryza sativa cv. Gigante vercellese (rice) glutamine synthetase assessed as inhibition of glutamine synthesis from glutamic acid at 10 uM after 50 min by biosynthetic assay.
For experiment [15] the target is unchanged. Described as §2.
For experiment [16] the target is unchanged. The description is as §1.

For orientation: residual activity means the signal under treatment as a percentage of the control signal. For the molecule `O=P(O)(O)C(Nc1ccncc1)P(=O)(O)O`, the Activity is on record as 1.21 umol/g fresh weight with Oryza sativa [1]; 32.64 umol/g fresh weight in the experiment with Oryza sativa [5]; 4.79 umol/g fresh weight with Oryza sativa [6]; 2.22 umol/g fresh weight in the experiment with Oryza sativa [7]; 1.14 umol/g fresh weight in the experiment with Oryza sativa [8]; 4.24 µmol/g fresh weight with Oryza sativa [9]. Also, the residual activity in experiment [2] was 119%; in experiment [3] it was 97.2%; in experiment [4], 84.9%.

On to `O=P(O)(O)C(Nc1cc(Cl)cc(Cl)c1)P(=O)(O)O` [(3,5-DICHLOROPHENYLAMINO)METHYLENEDIPHOSPHONIC ACID], for which the Activity was found to be 0.57 umol/g fresh weight with Oryza sativa [1]; 28.61 umol/g fresh weight in the experiment with Oryza sativa [5]; 2.72 umol/g fresh weight in the experiment on Oryza sativa [6]; 1.26 umol/g fresh weight in the experiment with Oryza sativa [7]; 0.49 umol/g fresh weight in the experiment with Oryza sativa [8]; 3.19 µmol/g fresh weight in the experiment with Oryza sativa [9]. Further, the IC50 on Glutamine synthetase [10] was found to be 33 µM; at Glutamine synthetase [11], 88 µM; on Glutamine synthetase [12], 0.396 µM. For the same molecule, the residual activity in [2] turned out to be 3.1%; in [3] it was 13.1%; in experiment [4], 38.1%. The inhibition entry in experiment [13] is “Active”.

In the case of `Cc1ccccc1CNC(P(=O)(O)O)P(=O)(O)O`, the residual activity in [2] stood at 101%; in experiment [3], 70.5%; in [4] it was 50.8%.

Regarding `O=C(O)c1cccnc1NC(P(=O)(O)O)P(=O)(O)O` [2-(DIPHOSPHONOMETHYLAMINO)NICOTINIC ACID], the figures for the IC50 at Glutamine synthetase [10], at Glutamine synthetase [11] and on Glutamine synthetase [12] were 334 µM, 624 µM and 1.45 µM, respectively. The results for the residual activity in experiment [2], in [3] and in experiment [4] were 27.2%, 40.8% and 61%, respectively.

As to `O=P(O)(O)C(NCc1ccccc1)P(=O)(O)O`, the residual activity in [2] amounted to 109%; in experiment [3], 89.1%; in [4], 102%.

Take `CP(=O)(O)CC[C@H](N)C(=O)O` [PHOSPHINOTHRICIN]: the IC50 on Glutamine synthetase [10] was found to be 44 µM; at Glutamine synthetase [11], 49 µM; on Glutamine synthetase [12], 172 µM. For the same molecule, the figures for the residual activity in [2], in experiment [3] and in [4] were 2%, 9.9% and 25.7%, respectively. Moreover, the inhibition result in experiment [14] was “inactive”.

Take `Cc1ccc(NC(P(=O)(O)O)P(=O)(O)O)cc1` [(P-TOLYLAMINO)METHYLENEDIPHOSPHONIC ACID]: the Activity stood at 0.76 umol/g fresh weight in the experiment on Oryza sativa [1]; 22.91 umol/g fresh weight in the experiment with Oryza sativa [5]; 2.95 umol/g fresh weight in the experiment with Oryza sativa [6]; 0.6 umol/g fresh weight in the experiment with Oryza sativa [7]; 0.61 umol/g fresh weight with Oryza sativa [8]; 2.97 µmol/g fresh weight in the experiment on Oryza sativa [9]. Besides, the IC50 turned out to be 170 µM at Glutamine synthetase [10] and 774 µM at Glutamine synthetase [11]. Further, in [15], the I50 entry was “inactive”. The results for the residual activity in [2], in experiment [3] and in experiment [4] were 14.3%, 57.6% and 93.8%, respectively.

Consider `O=C(O)c1cccc(NC(P(=O)(O)O)P(=O)(O)O)c1` [3-(DIPHOSPHONOMETHYLAMINO)BENZOIC ACID], for which, at Glutamine synthetase [10], the IC50 was 1800 µM. In addition, the I50 result in experiment [16] and in experiment [15] was “inactive” throughout. Besides, the residual activity was 62.5% in experiment [2], 99% in experiment [3] and 104% in experiment [4].

Regarding `O=P(O)(O)C(Nc1ncccn1)P(=O)(O)O`, the residual activity stood at 42.3% in experiment [2], 64.3% in [3] and 76.8% in [4].

For the molecule `O=P(O)(O)C(NC1CCCCC1)P(=O)(O)O` [(CYCLOHEXYLAMINO)METHYLENEDIPHOSPHONIC ACID], the results for the IC50 on Glutamine synthetase [10], on Glutamine synthetase [11] and at Glutamine synthetase [12] were 1110 µM, 461 µM and 915 µM, respectively. In addition, the residual activity in experiment [2] came to 50.5%; in [3], 32.7%; in experiment [4] it was 46.1%.

With `O=P(O)(O)C(Nc1ccccn1)P(=O)(O)O`, the IC50 was found to be 243 µM at Glutamine synthetase [10], 215 µM on Glutamine synthetase [11] and 1040 µM on Glutamine synthetase [12]. The results for the residual activity in experiment [2], in experiment [3] and in [4] were 37.6%, 30.2% and 60.1%, respectively.

As for `O=P(O)(O)C(NCCc1ccc(O)cc1)P(=O)(O)O` [(4-HYDROXYPHENETHYLAMINO)METHYLENEDIPHOSPHONIC ACID], the IC50 at Glutamine synthetase [10] amounted to 4470 µM; at Glutamine synthetase [11], 695 µM. The I50 entry in [15] is “inactive”. The residual activity in experiment [2] is 72.6%; in [3] it was 36.9%; in [4] it was 98.4%.

Consider `O=P(O)(O)C(NCc1ccccn1)P(=O)(O)O`, for which the Activity with Oryza sativa [1] is 1.66 umol/g fresh weight; in the experiment on Oryza sativa [5], 26.94 umol/g fresh weight; with Oryza sativa [6], 3.25 umol/g fresh weight; in the experiment with Oryza sativa [7], 1.53 umol/g fresh weight; in the experiment on Oryza sativa [8], 0.63 umol/g fresh weight; in the experiment on Oryza sativa [9], 4.78 µmol/g fresh weight. The IC50 amounted to 64 µM on Glutamine synthetase [10], 103 µM at Glutamine synthetase [11] and 1130 µM on Glutamine synthetase [12]. The results for the residual activity in experiment [2], in experiment [3] and in [4] were 8.8%, 16.1% and 54.6%, respectively.

For the molecule `NC(P(=O)(O)O)P(=O)(O)O`, the residual activity in [2] came out at 119%; in experiment [3], 81.2%; in experiment [4], 96.4%.

Take `O=P(O)(O)C(Nc1ccc(Cl)cn1)P(=O)(O)O`: the values for the IC50 at Glutamine synthetase [10], on Glutamine synthetase [11] and at Glutamine synthetase [12] were 69 µM, 96 µM and 1040 µM, respectively. In addition, the residual activity in experiment [2] was determined as 13.9%; in [3], 17.5%; in experiment [4], 52.8%.

As for `O=[N+]([O-])c1cccc(NC(P(=O)(O)O)P(=O)(O)O)c1` [(3-NITROPHENYLAMINO)METHYLENEDIPHOSPHONIC ACID], the IC50 came out at 738 µM on Glutamine synthetase [10], 1620 µM at Glutamine synthetase [11] and 1.99 µM at Glutamine synthetase [12]. The results for the residual activity in [2], in experiment [3] and in experiment [4] were 97.6%, 101% and 95.6%, respectively.

As to `O=P(O)(O)C(Nc1ccccc1)P(=O)(O)O`, the values for the residual activity in experiment [2], in experiment [3] and in experiment [4] were 108%, 92% and 44.3%, respectively.

In the case of `Cc1cccc(NC(P(=O)(O)O)P(=O)(O)O)n1`, the figures for the residual activity in [2], in [3] and in experiment [4] were 114%, 74.4% and 25.9%, respectively.
